From ChEMBL document CHEMBL3044692, “Biological activity of alpha-thujaplicin, the isomer of hinokitiol” (Biol Pharm Bull, 2004)
Values after ≈ are worked out from the molar mass of the structure shown. Active and inactive are the calls of the source. The rule behind the calls is not given here.

What was measured:
[1] = test system: Reticulitermes speratus; test: Insecticidal activity against Reticulitermes speratus assessed as mortality at 0.1 g/m'2 at 48 hr relative to control; assay type: functional
[2] = test system: Reticulitermes speratus; test: Insecticidal activity against Reticulitermes speratus assessed as mortality at 0.03 g/m'2 at 48 hr relative to control; assay type: functional
[3] = test system: P388; test: Growth inhibition of Mus musculus (mouse) P388 cells at >1.25 ug/ml after 48 hr by MTT assay; assay type: functional
[4] = test system: Fusarium solani; test: Antifungal activity against Fusarium solani IFO 9955 after 15 days by agar dilution method; assay type: functional; conditions: IFO 9955, 360 h
[5] = test system: P388; test: Growth inhibition of Mus musculus (mouse) P388 cells at 0.63 ug/ml after 48 hr by MTT assay; assay type: functional; conditions: P388, 48 h, read-out: GI
[6] = test system: Thanatephorus cucumeris; test: Antifungal activity against Thanatephorus cucumeris IFO 30455 after 15 days by agar dilution method; assay type: functional; conditions: IFO 30455, 360 h
[7] = test system: P388; test: Growth inhibition of Mus musculus (mouse) P388 cells at 0.63 ug/ml after 24 hr by MTT assay; assay type: functional; conditions: P388, 24 h, read-out: GI
[8] = test system: Dermatophagoides farinae; test: Acaricidal activity against Dermatophagoides farinae assessed as mortality at 0.5 g/m'2 after 24 hr relative to control; assay type: functional
[9] = test system: Legionella pneumophila; test: Antibacterial activity against Legionella pneumophila SG 1 after 7 days by agar dilution method; assay type: functional; conditions: SG 1, 168 h
[10] = test system: Botrytis cinerea; test: Antifungal activity against Botryotinia fuckeliana IFO 30915 after 15 days by agar dilution method; assay type: functional; conditions: IFO 30915, 360 h
[11] = test system: Reticulitermes speratus; test: Insecticidal activity against Reticulitermes speratus assessed as mortality at 0.1 g/m'2 at 24 hr relative to control; assay type: functional
[12] = test system: Reticulitermes speratus; test: Insecticidal activity against Reticulitermes speratus assessed as mortality at 0.02 g/m'2 at 24 hr relative to control; assay type: functional
[13] = Toxicity against ip dosed Mus musculus Slc:ddY (mouse) after 8 days; assay type: organism-based; conditions: in vivo
[14] = test system: Pythium aphanidermatum; test: Antifungal activity against Pythium aphanidermatum IFO 32440 after 15 days by agar dilution method; assay type: functional; conditions: IFO 32440, 360 h
[15] = test system: Tyrophagus putrescentiae; test: Acaricidal activity against Tyrophagus putrescentiae at high concentration; assay type: functional, organism-based
[16] = test system: Reticulitermes speratus; test: Insecticidal activity against Reticulitermes speratus assessed as mortality at 0.04 g/m'2 at 48 hr relative to control; assay type: functional
[17] = test system: Legionella pneumophila; test: Antibacterial activity against Legionella pneumophila SG 3 after 7 days by agar dilution method; assay type: functional; conditions: SG 3, 168 h
[18] = test system: Reticulitermes speratus; test: Insecticidal activity against Reticulitermes speratus at 48 hr; assay type: functional
[19] = test system: Dermatophagoides farinae; test: Acaricidal activity against Dermatophagoides farinae assessed as mortality at 0.01 g/m'2 after 24 hr relative to control; assay type: functional
[20] = test system: Dermatophagoides farinae; test: Acaricidal activity against Dermatophagoides farinae assessed as mortality at 1 g/m'2 after 24 hr relative to control; assay type: functional
[21] = test system: Reticulitermes speratus; test: Insecticidal activity against Reticulitermes speratus assessed as mortality at 0.01 g/m'2 at 48 hr relative to control; assay type: functional
[22] = test system: Reticulitermes speratus; test: Insecticidal activity against Reticulitermes speratus assessed as mortality at 0.04 g/m'2 at 24 hr relative to control; assay type: functional
[23] = test system: Reticulitermes speratus; test: Insecticidal activity against Reticulitermes speratus assessed as mortality at 0.02 g/m'2 at 48 hr relative to control; assay type: functional
[24] = test system: Reticulitermes speratus; test: Insecticidal activity against Reticulitermes speratus assessed as mortality at 0.03 g/m'2 at 24 hr relative to control; assay type: functional
[25] = test system: P388; test: Growth inhibition of Mus musculus (mouse) P388 cells after 24 to 48 hr by MTT assay; assay type: functional, cell-based
[26] = test system: Phomopsis obscurans; test: Antifungal activity against Phomopsis obscurans MAFF 744018 after 15 days by agar dilution method; assay type: functional; conditions: Paraphomopsis obscurans, MAFF 744018, 360 h
[27] = test system: P388; test: Growth inhibition of Mus musculus (mouse) P388 cells at >1.25 ug/ml after 24 hr by MTT assay; assay type: functional
[28] = test system: Dermatophagoides farinae; test: Acaricidal activity against Dermatophagoides farinae after 24 hr; assay type: functional
[29] = test system: Reticulitermes speratus; test: Insecticidal activity against Reticulitermes speratus assessed as mortality at 0.01 g/m'2 at 24 hr relative to control; assay type: functional
[30] = test system: Reticulitermes speratus; test: Insecticidal activity against Reticulitermes speratus assessed as mortality at 0.05 g/m'2 at 24 hr relative to control; assay type: functional
[31] = test system: Reticulitermes speratus; test: Insecticidal activity against Reticulitermes speratus assessed as mortality at 0.05 g/m'2 at 48 hr relative to control; assay type: functional
[32] = test system: Colletotrichum lagenaria; test: Antifungal activity against Colletotrichum lagenaria after 15 days by agar dilution method; assay type: functional; conditions: 360 h
[33] = test system: Colletotrichum orbiculare; test: Antifungal activity against Colletotrichum orbiculare MAFF 306518 after 15 days by agar dilution method; assay type: functional; conditions: MAFF 306518, 360 h
[34] = test system: Dermatophagoides farinae; test: Acaricidal activity against Dermatophagoides farinae assessed as mortality at 0.1 g/m'2 after 24 hr relative to control; assay type: functional
[35] = test system: Reticulitermes speratus; test: Insecticidal activity against Reticulitermes speratus assessed as mortality at 0.00050 g/m'2 at 24 hr relative to control; assay type: functional
[36] = test system: Reticulitermes speratus; test: Insecticidal activity against Reticulitermes speratus assessed as mortality at 0.00001 g/m'2 at 24 hr relative to control; assay type: functional
[37] = test system: Reticulitermes speratus; test: Insecticidal activity against Reticulitermes speratus assessed as mortality at 0.00025 g/m'2 at 48 hr relative to control; assay type: functional
[38] = test system: Reticulitermes speratus; test: Insecticidal activity against Reticulitermes speratus assessed as mortality at 0.00050 g/m'2 at 48 hr relative to control; assay type: functional
[39] = test system: Reticulitermes speratus; test: Insecticidal activity against Reticulitermes speratus assessed as mortality at 0.00005 g/m'2 at 24 hr relative to control; assay type: functional
[40] = test system: Reticulitermes speratus; test: Insecticidal activity against Reticulitermes speratus assessed as mortality at 0.00010 g/m'2 at 24 hr relative to control; assay type: functional
[41] = test system: Reticulitermes speratus; test: Insecticidal activity against Reticulitermes speratus assessed as mortality at 0.00005 g/m'2 at 48 hr relative to control; assay type: functional
[42] = test system: Reticulitermes speratus; test: Insecticidal activity against Reticulitermes speratus assessed as mortality at 0.00010 g/m'2 at 48 hr relative to control; assay type: functional
[43] = test system: Reticulitermes speratus; test: Insecticidal activity against Reticulitermes speratus assessed as mortality at 0.00025 g/m'2 at 24 hr relative to control; assay type: functional
[44] = test system: Dermatophagoides farinae; test: Acaricidal activity against Dermatophagoides farinae assessed as mortality at 0.2 g/m'2 after 24 hr relative to control; assay type: functional
[45] = test system: Dermatophagoides farinae; test: Acaricidal activity against Dermatophagoides farinae assessed as mortality at 0.02 g/m'2 after 24 hr relative to control; assay type: functional
[46] = test system: Dermatophagoides farinae; test: Acaricidal activity against Dermatophagoides farinae assessed as mortality at 0.05 g/m'2 after 24 hr relative to control; assay type: functional
[47] = Cytotoxicity against Mus musculus (mouse) MH134; assay type: functional
[48] = test system: MDCK; test: Cytotoxicity against MDCK cells; assay type: functional; conditions: Canis lupus familiaris
[49] = Cytotoxicity against Mus musculus (mouse) RL male 1; assay type: functional
[50] = test system: K562; test: Cytotoxicity against Homo sapiens (human) K562; assay type: functional, cell-based
[51] = Cytotoxicity against Homo sapiens (human) KATO III; assay type: functional
[52] = test system: HL-60; test: Cytotoxicity against Homo sapiens (human) HL60; assay type: functional, cell-based
[53] = test system: Colon 26; test: Cytotoxicity against Mus musculus (mouse) colon 26 cells; assay type: functional

## CC(C)c1ccccc(=O)c1O [ALPHA-THUJAPLICIN]
[1]
  mortality: 100%
[2]
  mortality: 100%
[3]
  growth inhibition (GI): 100%
[4]
  MIC: 50 µg/mL (≈ 304 µM)
[5]
  inhibition of growth at 0.63 µg/mL: 68%
[6]
  MIC: 12 µg/mL (≈ 73.1 µM)
[7]
  inhibition of growth at 0.63 µg/mL: 78%
[8]
  mortality: 38.4%
[9]
  MIC: 12.5 µg/mL (≈ 76.1 µM)
[10]
  MIC: 25 µg/mL (≈ 152 µM)
[11]
  mortality: 100%
[12]
  mortality: 0%
[13]
  LD50 at 192 h: 256 mg/kg
[14]
  MIC: 12 µg/mL (≈ 73.1 µM)
[15]
  Activity: inactive
[16]
  mortality: 100%
[17]
  MIC: 50 µg/mL (≈ 304 µM)
[18]
  LC50: 0.02 g/m2
[19]
  mortality: 1.1%
[20]
  mortality: 69.5%
[21]
  mortality: 0%
[22]
  mortality: 13.3%
[23]
  mortality: 0%
[24]
  mortality: 0%
[25]
  growth inhibition (GI): Dose-dependent effect
[26]
  MIC: 12 µg/mL (≈ 73.1 µM)
[27]
  growth inhibition (GI): 98%
[28]
  LC50: 0.66 g/m2
[29]
  mortality: 0%
[30]
  mortality: 93.3%
[31]
  mortality: 100%
[32]
  MIC: 12 µg/mL (≈ 73.1 µM)
[33]
  MIC: 12 µg/mL (≈ 73.1 µM)
[34]
  mortality: 0%

## CCOP(=S)(OCC)Oc1nc(Cl)c(Cl)cc1Cl [CHLORPYRIFOS]
[35]
  mortality: 100%
[36]
  mortality: 0%
[37]
  mortality: 100%
[18]
  LC50: 0.00016 g/m2
[38]
  mortality: 100%
[39]
  mortality: 10%
[40]
  mortality: 25%
[41]
  mortality: 40%
[42]
  mortality: 75%
[43]
  mortality: 60%

## CCN(CC)C(=O)c1cccc(C)c1 [DIETHYLTOLUAMIDE]
[8]
  mortality: 20.5%
[20]
  mortality: 45.5%
[28]
  LC50: 0.79 g/m2
[44]
  mortality: 7.2%
[34]
  mortality: 0%

## CC(C)c1cccc(=O)c(O)c1 [HINOKITIOL]
[1]
  mortality: 100%
[2]
  mortality: 100%
[45]
  mortality: 2.6%
[4]
  MIC: 50 µg/mL (≈ 304 µM)
[46]
  mortality: 11.9%
[6]
  MIC: 12 µg/mL (≈ 73.1 µM)
[47]
  IC50: 0.3 µg/mL (≈ 1.83 µM)
[48]
  MIC: 10 µg/mL (≈ 60.9 µM)
[9]
  MIC: 6.25 µg/mL (≈ 38.1 µM)
[10]
  MIC: 50 µg/mL (≈ 304 µM)
[11]
  mortality: 100%
[12]
  mortality: 0%
[14]
  MIC: 12 µg/mL (≈ 73.1 µM)
[49]
  IC50: 0.3 µg/mL (≈ 1.83 µM)
[16]
  mortality: 100%
[17]
  MIC: 25 µg/mL (≈ 152 µM)
[18]
  LC50: 0.03 g/m2
[19]
  mortality: 0%
[20]
  mortality: 100%
[50]
  IC50: 0.3 µg/mL (≈ 1.83 µM)
[21]
  mortality: 0%
[22]
  mortality: 100%
[23]
  mortality: 0%
[24]
  mortality: 13.3%
[51]
  IC50: 0.3 µg/mL (≈ 1.83 µM)
[26]
  MIC: 12 µg/mL (≈ 73.1 µM)
[29]
  mortality: 0%
[30]
  mortality: 100%
[52]
  IC50: 0.3 µg/mL (≈ 1.83 µM)
[31]
  mortality: 100%
[53]
  MIC: 10 µg/mL (≈ 60.9 µM)
[32]
  MIC: 25 µg/mL (≈ 152 µM)
[33]
  MIC: 25 µg/mL (≈ 152 µM)
[34]
  mortality: 99%

## O=c1cccccc1O [TROPOLONE]
[47]
  IC50: 0.3 µg/mL (≈ 2.46 µM)
[49]
  IC50: 0.3 µg/mL (≈ 2.46 µM)
[50]
  IC50: 0.3 µg/mL (≈ 2.46 µM)
[51]
  IC50: 0.3 µg/mL (≈ 2.46 µM)
[52]
  IC50: 0.3 µg/mL (≈ 2.46 µM)

## CC[C@]1(O)C[C@@H]2CN(CCc3c([nH]c4ccccc34)[C@@](C(=O)OC)(c3cc4c(cc3OC)N(C)[C@H]3[C@@](O)(C(=O)OC)[C@H](OC(C)=O)[C@]5(CC)C=CCN6CC[C@]43[C@@H]65)C2)C1 [VINBLASTINE]
[7]
  inhibition of growth at 0.63 µg/mL: 84%
